Results taken from patent US10709667B2, “Hydrogel encapsulated cells and anti-inflammatory drugs” (Massachusetts Institute of Technology, priority 2011, dated 2020).

Legend:
fibrosis on capsules = assay: Fibrosis formation on capsules retrieved 60 days after transplantation (observation, DNA fluorescent staining); type: in vivo, mice; settings: FIG. 9
Description: Sixty days after transplantation of islet-containing capsules, the mice from example 6 were sacrificed by CO2 asphyxiation. A lapratomy was performed to expose the abdominal cavity and capsules were retrieved by an abdominal lavage with HEPES buffer. The abdominal cavity was examined closely to identify remaining capsules, which if found were gently removed using atraumatic tweezers. The retrieved capsules were subsequently washed several times in HEPES buffer and imaged at 2× magnification using an EVOS brightfield microscope (AMG). Finally, capsules were transferred into a 1.5 ml Eppendorf tube, and frozen at −20° C. for future analysis.
50 μl of retrieved capsules (120-150 alginate capsules) were transferred to each well of a 24-well Millicell® cell culture insert (Millipore) using wide-orifice pipette tips (Fisher Scientific, Pittsburgh, Pa., USA). The capsules were incubated at 37° C. for 45 min in 800 μl of 0.001 mg/ml Hoersch 33342 dye (Invitrogen) prepared from stock solution by dilution with HEPES buffer. Afterwards, these capsules were washed four times with HEPES buffer. […] Finally, fluorescent signals from the stained capsules were obtained using a Tecan UV-VIS absorbance plate reader at with the excitation and emission wavelengths of 350 nm and 460 nm respectively.
A rigorous quantification technique was developed to assess fibrosis on capsules via DNA fluorescent staining. […]

encapsulated islets = type: cell-based; settings: hybrid alginate capsules with 2 mg/ml dexamethasone or 1 mg/ml curcumin, 4 days co-culture, FIG. 5
Description: (§1) RAW 264.7 macrophages were cultured in RPMI-1640 medium supplemented with 10% FBS, 100 units/ml penicillin and 100 μg/ml streptomycin (Invitrogen). The cells were sub-cultured every 2-3 days. 0.2 million macrophages in 3 ml of fresh culture medium were seeded into each well of a six-well tissue-culture treated polystyrene plate and allowed to adhere to the plate surface over night. The culture medium was removed and encapsulated islets were added in 3 ml of fresh medium to each well with adherent macrophages. Co-culturing of encapsulated islets with macrophages was maintained for four days. Afterwards, supernatant samples were collected and frozen at −20° C. for future insulin analysis with an insulin ELISA kit (ALPCO diagnostics). Encapsulated islets were collected into new plates. Both encapsulated islets and remaining adherent macrophages were washed in HEPES buffer and subjected to live-dead fluorescent staining (Invitrogen) for viability assessment.
(§2) An in vitro experiment was designed to test whether the presence of immune cells affects insulin secretion by islets. Hybrid alginate capsules containing islet cells and 2 mg/ml of dexamethasone or 1 mg/ml of curcumin were fabricated. Islet cells were encapsulated alone as a positive control. As a negative control, encapsulated islets were co-cultured with a macrophage cell line adherent to the plate's bottom. […]

[1] = tested on: C57/B6 mice with streptozotocin (STZ)-induced diabetes; assay: Transplantation of encapsulated rat islets into STZ-induced diabetic mice, daily blood glucose monitoring; type: in vivo; settings: daily blood glucose over 2 months, marginal mass of islets, intraperitoneal, n=6-7
Description: Alginate with high gluronic acid content SLG20 (Novamatrix, FMC Polymer, Drammen, Norway) was dissolved in sterile 0.9% (w/v) NaCl to give an alginate solution of 1.5% (w/v). To prepare hybrid drug-islet capsule, 1.5% (w/v) alginate was mixed with curcumin (Sigma Aldrich) at 0.3-1.0 mg/ml or with dexamethasone (Sigma Aldrich) at 1-2 mg/ml and stirred for 3-4 days to ensure that the drug is homogenously dispersed. During this mixing period, curcumin-alginate mixture was wrapped in aluminium foil to avoid light exposure which might oxidize this drug. One day after islet isolation, islets were washed twice with Ca-free Krebs and mixed with the alginate suspension with or without dispersed drug at a pre-cross-linking islet density of approximately 750-1000 islets/ml. […]
Male Sprague—Dawley rats, 200-250 g, also obtained from Charles River Laboratories, were used as islet donors. […] The mice were observed daily till after the final STZ injection when they are weighed and their blood glucose levels determined. Mice were confirmed diabetic if their non-fasted blood glucose level rose above 300 mg/dL for two consecutive daily readings. […]
Xenogeneic transplants of encapsulated rat islets to diabetic mice recipients were performed to examine the reversibility of diabetes. […] Shortly thereafter, islet-containing capsules were sampled in quadruplicate, the total islets number was counted. […]

RAW 264.7 macrophages = assay: Co-culture of macrophages and encapsulated islets: macrophage proliferation; type: cell-based; settings: hybrid alginate capsules with 2 mg/ml dexamethasone or 1 mg/ml curcumin, 4 days co-culture
Description: as §1, §2

[2] = tested on: islet cells in retrieved capsules; assay: Insulin secretion from retrieved capsules; type: in vivo; settings: 24 hours, FIG. 10
Description: Sixty days after transplantation of islet-containing capsules, the mice from example 6 were sacrificed by CO2 asphyxiation. A lapratomy was performed to expose the abdominal cavity and capsules were retrieved by an abdominal lavage with HEPES buffer. The abdominal cavity was examined closely to identify remaining capsules, which if found were gently removed using atraumatic tweezers. The retrieved capsules were subsequently washed several times in HEPES buffer and imaged at 2× magnification using an EVOS brightfield microscope (AMG). Finally, capsules were transferred into a 1.5 ml Eppendorf tube, and frozen at −20° C. for future analysis. Insulin secretion was measured from the retrieved capsules for 24 hours.

Q: With `COc1cc(/C=C/C(=O)CC(=O)/C=C/c2ccc(O)c(OC)c2)ccc1O` [curcumin] as the molecule, how does the “fibrosis by DNA fluorescence of retrieved capsules” value (fibrosis on capsules) read?
A: reduced fibrosis with statistical significance

Q: What about the “insulin secretion from encapsulated islets co-cultured with macrophages” value (encapsulated islets) of the same molecule?
A: restored insulin secretion

Q: What about the glycemic control [1] of the same molecule?
A: improved glycemic control

Q: What about the macrophages proliferation (RAW 264.7 macrophages) of the same molecule?
A: hindered macrophages proliferation

Q: What about the “insulin secretion from retrieved capsules” value [2] of the same molecule?
A: greatly improved insulin secretion
